Key:
[1] = tested on: adhesion of monocytes to HUVECs; test: Monocyte adhesion assay on HUVECs; assay type: cell-based, human; settings: for increase in the adhesion of monocytes compared to treatment with control buffer: stimulation of HUVECs for 6 hours, TNF-α 10 ng/ml or IL-1β 15 ng/ml
Excerpt: Human peripheral blood monocytes were isolated from fresh blood of healthy volunteers by Ficoll-Paque gradient centrifugation. The study protocol and informed consent forms were approved by the Chonbuk. National University Hospital Review Board. Monocytes were isolated by negative selection using magnetic beads (Miltenyi Biotec, Bergisch Gladbach, Germany) (Ancuta P et al., J Exp Med 2003 197: 1701-1707). The purity of the monocyte fraction was 93-95% as determined by staining with anti-CD14, anti-CD33, anti-CD16b, and anti-CD56 mAbs and FACScan analysis (Becton Dickinson, Franklin Lakes, N.J.). Monocyte-endothelial adhesion was determined by fluorescent labeling of monocytes by a method described previously (Kim W. et al., Arterioscler Thromb Vase Biol 2003 23: 1377-1383). A number of monocytes adhered to HUVECs was expressed as percent calculated by the formula: % signal/total signal).

serum TNF-α = test: Serum TNF-α by ELISA after intravenous LPS in rats; assay type: in vivo, rat; settings: for serum level of TNF-α: rats, LPS 10 mg/kg intravenous by tail vein
Protocol: (§1) Blood samples (0.5 ml) were taken from rats at 0, 1, 2, 3, and 4 hours after the administration of LPS (10 mg/kg) or vehicle. Serum concentrations of TNF-α and IL-1β were determined by using ELISA kits (Endogen, Woburn, Mass.).
(§2) Serum concentrations of TNF-α and IL-1β were determined by using Enzyme-Linked Immunosorbent Assay (ELISA) Kits (Endogen, Woburn, Mass.). […] Thus, we used TNF-α- and IL-1β in this experiment.
(§3) Inbred male Sprague-Dawley rats (150-200 g) were obtained from Orient (Charles River Korea, Seoul, Korea) and were maintained on standard laboratory chow and water ad libitum. All animal studies were reviewed and approved by the Institutional Animal Care and Use Committee of Chonbuk National University Medical School. The rats (180-220 g) were divided into 3 groups; control (n=6), LPS (10 mg/kg) (n=6), and LPS (10 mg/kg) plus LA (10 mg/kg/day) (n=6). Control buffer and LPS were injected intravenously through the tail vein. LA was injected intraperitoneally once per day for three days prior to LPS administration. At 12 hours postinjection of vehicle or LPS, rats were anesthetized with ketamine (100 mg/kg) and xylazine (10 mg/kg), and subsequently sacrificed by cervical dislocation. Heart and jejunum were harvested for RNase protection assay, Western blot, and immunohistochemistry.

serum IL-1β = test: Serum IL-1β by ELISA after intravenous LPS in rats; assay type: in vivo, rat; settings: for serum level of IL-1β: rats, LPS 10 mg/kg intravenous by tail vein
Protocol: as §1, §2, §3

[2] = tested on: fractalkine expression in rat heart; test: Immunohistochemical analysis of fractalkine expression in heart of LPS-induced endotoxemia rats; assay type: in vivo; settings: LA 10 mg/kg/day for 3 days before LPS 10 mg/kg i.v., 12 hours
Protocol: as §3
(§4) After sacrifice, the hearts and jejunums were quickly excised, rinsed with PBS, and frozen in OCT in methyl-butane on dry ice. Frozen tissue blocks were sectioned at […], and 8-12 sections of heart or jejunum from each rat were incubated with anti-fractalkine antibody at 4 C overnight. […] Fractalkine expression was semi-quantitated by grading the degree of immunostaining (very strong=5, strong=4, moderate=3, weak=2, none=1). […]

fractalkine mRNA = test: RNase protection assay (RPA) for fractalkine mRNA in HUVECs; assay type: cell-based, human
Protocol: (§5) Recombinant human TNF-α was purchased from R&D Systems (Minneapolis, Minn.). Anti-fractalkine antibody was purchased from Torrey Pines BioLabs (Houston, Tex.). LPS was purchased from Sigma-Aldrich (St. Louis, Mo.). LA (Thioctacid 600®) was obtained from VIATRIS GmbH & Co. KG (Frankfurt, Germany). Calcein-AM was purchased from Molecular Probe (Eugene, Oreg.). Media, sera, and other biochemical reagents were purchased from Sigma-Aldrich, unless otherwise specified. HUVECs were prepared from human umbilical cords by collagenase digestion as previously described (Kim W et al., FASEB J. 2003 17: 1337-19395. Homogeneity of endothelial cells in cultures was confirmed by the presence of factor VIII using immunofluorescence method. HUVECs were maintained in M-199 medium supplemented with 20% (vol/vol) fetal bovine serum at 37° C. in a 5% CO2atmosphere. The primary cultured cells used in this study were between 2 and 4 passages.
A part of cDNA of human fractalkine (nucleotides 482-893, GenBank accession NM002996) was amplified by PCR and subcloned into pBluescript II KS+ (Stratagene, La Jolla, Calif.). After linearizing with EcoRI, ^32P-labeled antisense RNA probes were synthesized by in vitrotranscription using T7 polymerase (Ambion Maxiscript kit; Ambion, Austin, Tex.) and gel purified. RPA was performed on total RNAs using the Ambion RPA kit (Ambion, Austin, Tex.). An antisense RNA probe of human cyclophilin (nucleotides 135-239, GenBank accession X52856) was used as an internal control for RNA quantification.

[3] = tested on: fractalkine expression in rat small intestine; test: Immunohistochemical analysis of fractalkine expression in small intestine of LPS-induced endotoxemia rats; assay type: in vivo; settings: LA pretreatment before LPS, 12 hours, FIGS. 7a, 7b
Protocol: as §3, §4

fractalkine protein = test: Western blot analysis of fractalkine protein in HUVECs; assay type: cell-based, human
Protocol: as §5
Western blot analyses were performed as previously described (Aim S Y et al., Am J Pathol 2004 164: 1663-1672). Samples were mixed with sample buffer, boiled for 10 minutes, separated by SDS-PAGE electrotransfered to nitrocellulose membranes. The nitrocellulose membranes were blocked by incubation in blocking buffer, incubated with anti-fractalkine monoclonal antibody, washed, and incubated with horseradish peroxidase-conjugated secondary antibody. […]

NF-κB (p65/p50) = test: EMSA for NF-κB binding activity in nuclear extracts of HUVECs; assay type: cell-based, human
Protocol: EMSA for NF-κB proteins was performed as previously described (Kim I et al., J Biol Chem 2001 276: 7614-7620). Briefly, the cells were lysed in a hypotonic buffer (10 mmol/L HEPES, pH 7.9, 1.5 mmol/L MgCl2, 10 mmol/L KCl, 0.5 mmol/L DTT, 0.5 mmol/L PMSF) containing 0.6% NP-40 and centrifuged at 4000 rpm for 15 min. The pellet was lysed in […] of a high salt buffer (20 mmol/L HEPES, pH 7.9, 420 mmol/L NaCl, 25% glycerol, 1.5 mmol/L MgCl2, 0.2 mmol/L EDTA, 0.5 mmol/L PMSF, 0.5 mmol/L DTT) for 20 min on ice. Seventy five microliter of storage buffer (20 mmol/L HEPES, pH7.9, 100 mmol/L NaCl, 20% glycerol, 0.2 mmol/L EDTA, 0.5 mmol/L PMSF, 0.5 mmol/L DTT) was added, agitated for 10 sec by vortexing, and centrifused at 14,000 rpm for 20 min. Nuclear extracts ([…]) were incubated with approximately 20,000 cpm of ^32P-labeled NF-κB binding site oligomer 5′-[…]-3′ (SEQ ID NO: 1) (Santa Cruz Biotechnology, Santa Cruz, Calif.) for […] at 20 C. EMSA for SP-1 protein was performed with biotin-labeled SP-1 binding site oligomer 5′-[…] (SEQ ID NO: 2) and signals were detected by chemiluminescent imaging according to the manufacturer's protocol (EMSA Gel-Shift. Kit; Panomics, Redwood City, Calif.).
We previously reported that NF-κB is involved in TNF-α induced fractalkine expression in HUVECs (Ahn S Y et al., Am J Pathol 2004 164: 1663-1672). […]

SP-1 = test: EMSA for SP-1 binding activity in nuclear extracts of HUVECs; settings: FIG. 5b
Protocol: Briefly, the cells were lysed in a hypotonic buffer (10 mmol/L HEPES, pH 7.9, 1.5 mmol/L MgCl2, 10 mmol/L KCl, 0.5 mmol/L DTT, 0.5 mmol/L PMSF) containing 0.6% NP-40 and centrifuged at 4000 rpm for 15 min. […] Seventy five microliter of storage buffer (20 mmol/L HEPES, pH7.9, 100 mmol/L NaCl, 20% glycerol, 0.2 mmol/L EDTA, 0.5 mmol/L PMSF, 0.5 mmol/L DTT) was added, agitated for 10 sec by vortexing, and centrifused at 14,000 rpm for 20 min. […] EMSA for SP-1 protein was performed with biotin-labeled SP-1 binding site oligomer 5′-[sequence]

**Q.** How did the “increase in the adhesion of monocytes compared to treatment with control buffer” value [1] turn out when TNF-α was run?
**A.** The value was 5 fold.

**Q.** With lipopolysaccharide [LPS] as the compound, how does the “serum level of TNF-α” value (serum TNF-α; 3 hours after LPS) read?
**A.** The value was 975 ± 121 pg/mL.

**Q.** And the “serum level of TNF-α” value (serum TNF-α; 4 hours after LPS)?
**A.** Its value is 0 pg/mL.

**Q.** And the “serum level of IL-1β” value (serum IL-1β; 1 hour after LPS)?
**A.** The value was 104 ± 20 pg/mL.

**Q.** And the “serum level of IL-1β” value (serum IL-1β; 2 hours after LPS)?
**A.** Its value is 232 ± 45 pg/mL.

**Q.** And the “serum level of IL-1β” value (serum IL-1β; 3 hours after LPS)?
**A.** The value was 212 ± 19 pg/mL.

**Q.** Which “effect on LPS-induced fractalkine expression in arterial endothelial cells, endocardium, and endocardial surface of cardiac valves” value [2] does the source give for `O=C(O)CCCCC1CCSS1` (stereo not shown) [LA, 1,2-dithiolane-3-pentanoic acid] here?
**A.** Its value is “dramatically suppressed”.

**Q.** And the “effect on LPS-increased serum TNF-α” value (serum TNF-α; rats pretreated with LA, then LPS, FIG. 1a)?
**A.** Its value is “significantly inhibited”.

**Q.** And the “suppression of IL-1β-induced expression of fractalkine mRNA” value (fractalkine mRNA; IL-1β 15 ng/ml, LA 4 mmol/L, FIG. 4b)?
**A.** The value was 70-80%.

**Q.** What about the “effect on expression of fractalkine mRNA induced by TNF-α and IL-1β together” value (fractalkine mRNA; TNF-α 10 ng/ml and IL-1β 15 ng/ml together, FIG. 4c) of the same compound?
**A.** Its value is “suppressed”.

**Q.** What about the “suppression of TNF-α-induced expression of fractalkine mRNA” value (fractalkine mRNA; TNF-α 10 ng/ml, LA 4 mmol/L, FIG. 4a) of the same compound?
**A.** The value was 70-80%.

**Q.** And the “effect on LPS-induced fractalkine expression in arterial endothelial cells and villous endothelium” value [3]?
**A.** Its value is “dramatically suppressed”.

**Q.** What about the “effect on TNF-α- and/or IL-1β-induced expression of fractalkine protein” value (fractalkine protein) of the same compound?
**A.** Its value is “decreased”.

**Q.** And the “effect on basal NF-κB (p65/p50) binding activity” value (NF-κB (p65/p50); LA alone)?
**A.** The value was “no effect”.

**Q.** What about the “effect on TNF-α- and/or IL-1β-induced NF-κB (p65/p50) binding activity” value (NF-κB (p65/p50); TNF-α 10 ng/ml and/or IL-1β 15 ng/ml, LA 4 mmol/L, FIG. 5a) of the same compound?
**A.** The value was “suppressed”.

**Q.** And the “effect on TNF-α- and/or IL-1β-induced SP-1 binding activity” value (SP-1)?
**A.** Its value is “decreased”.

**Q.** And the “effect on basal SP-1 binding activity” value (SP-1; LA alone)?
**A.** The value was “no effect”.

**Q.** And the “decrease in monocyte adhesion to IL-1β-stimulated HUVECs” value ([1]; IL-1β 15 ng/ml, FIG. 6a, 6b)?
**A.** Its value is 76%.

**Q.** And the “decrease in monocyte adhesion to TNF-α-stimulated HUVECs” value ([1]; TNF-α 10 ng/ml, FIG. 6a, 6b)?
**A.** Its value is 63%.

**Q.** What about the “effect on HUVEC adhesiveness for monocytes, substance alone” value ([1]; unstimulated HUVECs) of the same compound?
**A.** Its value is “no effects”.

**Q.** And the “effect on LPS-increased serum IL-1β” value (serum IL-1β; rats pretreated with LA, then LPS, FIG. 1b)?
**A.** Its value is “significantly inhibited”.

**Q.** For “IL-1β: proinflammatory cytokine used to stimulate HUVECs”, which “increase in the adhesion of monocytes compared to treatment with control buffer” value [1] is on record?
**A.** The value was 4 fold.

— patent publication US20080146650A1, “PHARMACEUTICAL COMPOSITION COMPRISING A-LIPOIC ACID FOR INFLAMMATORY DISEASES” (priority 2005, published 2008)
